Results reported in patent publication US11008603B2, “Method and kit for detecting pathogenic microorganism” (JAPAN SCIENCE AND TECHNOLOGY AGENCY, priority 2016, dated 2021).

Experiments:
[1] = Test Example 1: influence of pH value of hydrophilic solvent on fluorescence detection of 4-MU in droplets covered with FC40; assay type: physicochemical; settings: 50 μM 4-MU, 33 mM DEA-HCl, 4 mM CaCl2; buffer pH set higher than pKa (pH 8 or more) within pH 6.5 to 9.0; FC40 cover
Excerpt: According to the following procedure, the influence of the pH value of a hydrophilic solvent on detection sensitivity was studied.
First, according to a report by Kim et al. (“Quantifying genetically inserted fluorescent protein in single iPS cells to monitor Nanog expression using electroactive microchamber arrays”, Lab on Chip, 2014, Issue 4, Vol. 14, and p. 730-736), a droplet array device (DAD) was produced. A cover glass (24 mm×32 mm) was washed and dried. The cover glass was then spin-coated with an amorphous fluorine resin (CYTOP 816AP, AGC Inc.), and fired at 180° C. for 1 hour. The cover glass coated with the amorphous fluorine resin was spin-coated with a positive type photoresist (AZ-4903, AZ Electronic Materials), fired at 55° C. for 3 minutes, and then further fired at 110° C. for 5 minutes. The cover glass was subjected to photolithography by use of a photomask having holes each having a diameter of 3 μm at intervals of 5 μm. The cover glass was dry-etched with oxygen plasma, and then washed to obtain as the DAD. […]
With a CMOS camera (Neo sCMOS, Andor) connected to a fluorescence microscope (IX8, OLYMPUS), a fluorescent image of each of the droplets was photographed to measure fluorescence intensity. […] The fluorescent image was analyzed with an imaging analysis software (Meta-Morph, Molecular Devices), to calculate fluorescence intensity.

[2] = Test Example 2: influence of buffering substance (DEA) concentration on fluorescence intensity of 4-MU in droplets covered with FC40 over time; assay type: physicochemical; settings: 4 mM CaCl2, pH 6.5, 50 μM 4-MU
Experimental: According to the following procedure, the influence of the concentration of a buffering substance of a hydrophilic solvent on detection sensitivity was studied. 4-MU was dissolved in a concentration of 50 μM in a buffer solution (4 mM CaCl2, pH 6.5) having a DEA concentration adjusted to 25 mM to 1M. Into the array, 30 μL of the buffer solution in which 4-MU was dissolved was introduced, to fill each of the wells with the buffer solution (see FIG. 1A). Then, into the array, 200 μL of a hydrophobic solvent (FC40) was introduced, to form a droplet of the hydrophilic solvent covered with the hydrophobic solvent in each of the wells. Time-lapse photographing was performed under a fluorescence microscope to measure fluorescence intensity of each of the droplets.

[3] = cited from earlier work

| fluorescence detection sensitivity in droplet (distribution/leakage to FC40) [1] | fluorescence intensity over time ([2]; DEA 50 mM, for 10 minutes) | decrease in the fluorescence intensity over time ([2]; DEA 100 mM, for 30 minutes) | decrease in the fluorescence intensity over time ([2]; DEA 500 mM, for 30 minutes) | decrease in the fluorescence intensity over time ([2]; DEA 1 M, after subtraction of fading due to exposure) | Molecule | fluorescence intensity over time ([2]; DEA 25 mM) | acid dissociation constant (pKa) [3] |
| --- | --- | --- | --- | --- | --- | --- | --- |
| detected with higher sensitivity | maintained | significantly suppressed | significantly suppressed | not observed | Cc1cc(=O)oc2cc(O)ccc12 [4MU, 4-methylumbelliferone] | decrease in the fluorescence intensity was observed | 7.79 |
|  |  |  |  |  | fluorescein |  | 6.4 |
|  |  |  |  |  | O=c1ccc2nc3ccc(O)cc3oc-2c1 [resorufin] |  | 6.0 |
|  |  |  |  |  | CCN(CC)c1ccc2c(-c3ccccc3C(=O)O)c3ccc(=[N+](CC)CC)cc-3oc2c1.[Cl-] [rhodamine] |  | 6.0 |
